Experimental findings from patent publication US8202563B2, “Acidulate composition and methods for making and utilizing the same” (Clabber Girl Corporation, priority 2008, dated 2012) are described below.

The experiment has as its system microbial growth (mold). The experiment in a line: 6-month storage test of flour tortillas, visual signs of microbial growth. The conditions noted are these: flour tortillas with sodium propionate and potassium sorbate, acidulate 0.2832 weight %, stored at about 77° F., end of 6-month period. The procedure: The ingredients listed in Table 1 were combined at 100° F. The water and flour mixture was mixed for 2 minutes at a low speed with a dough hook. The dough was allowed to stand for 5 minutes and then divided into 50-gram balls that were heat pressed at 175° F. for 10 seconds. The raw tortillas were then baked on a griddle at 400° F. for 30 seconds on each side, and subsequently cooled.
Tortillas from each test batch were evaluated after baking for volume, eating quality, and microbial growth. Thereafter, tortilla specimens from of each batch were heat sealed in cellophane bags, bagged in ZIPLOCK® freezer pouches and stored at about 77° F. All test batches of tortilla samples were checked periodically for visual signs of microbial growth, volume reduction, and overall appearance over a 6-month period.

SMILES strings stand for the structures.

Take `O=C(O)/C=C/C(=O)O` [raw fumaric acid, fumaric acid]: the “visual signs of microbial growth / mold on tortillas” value was “visual signs of microbial growth, albeit to a lesser extent than the control tortillas”.
